# Assay results taken from patent US10456358B2, “Isoxazoline compositions and use thereof in the prevention or treatment of parasite infestations in animals” (Intervet Inc., priority 2013, dated 2019).
# Tested on: poultry red mite (Dermanyssus gallinae)
# Assay: Efficacy study: medicated drinking water against artificially induced poultry red mite infestations of laying hens
# Format: in vivo
# Experimental: Groups A-D (n=6) were treated with doses of 2, 1 and 0.5 mg fluralaner/kg BW once or 1 mg fluralaner/kg BW twice (0.5 mg/kg BW on 2 occasions).
# Drinking water consumption in each was measured on three days prior to administration to calculate the average daily water consumption. Medicated water was prepared by diluting a fluralaner solution (10 mg/mL) as shown in the table below to the calculated fluralaner concentration.
# On D0 (group D additionally on D7), the hens in groups A-D received fluralaner via medicated drinking water. Group E received un-medicated drinking water ad libitum.
# The dose to be administered was calculated based on average body weights of each treatment group, obtained one day before treatment (D-1, D 6). A fluralaner stock solution was diluted in the drinking water to prepare medicated water ready for consumption.
# The volume of medicated water offered per group on D0 (group D also on D7) was approximately 50% of the calculated mean daily water intake measured previously in the respective group in order to ensure consumption of the full dose.
# Once all medicated water was consumed the other 50% volume of the mean daily water intake was supplied as tap water in the same drinker.
# On Day 1, Day 5, Day 8, Day 12, D15, D19 and D22 four of six hens per group were infested with approximately 200 vital, D. gallinae mites (unfed nymphs and adults that starved before infestation for 7 days).
# From each infested hen approximately 25 engorged mites were collected and incubated for approximately 24 hours. The dead, damaged and/or live mites were counted visually using a binocular.
# Mites were classified as dead if no movement was determined or mites lay in a dorsal position. Mites were classified as damaged if their movement was uncoordinated.
# The Mite Mortality and Mite Inhibition percentage was calculated for each treated group in comparison to a not-treated negative control group.
# [1] = Group A, 2 mg/kg BW once (D0) via drinking water, laying hens, infestation on D1
# [2] = Group A, 2 mg/kg BW once (D0) via drinking water, laying hens, infestation on D5
# [3] = Group A, 2 mg/kg BW once (D0) via drinking water, laying hens, infestation on D8
# [4] = Group A, 2 mg/kg BW once (D0) via drinking water, laying hens, infestation on D12
# [5] = Group A, 2 mg/kg BW once (D0) via drinking water, laying hens, infestation on D15
# [6] = Group A, 2 mg/kg BW once (D0) via drinking water, laying hens, infestation on D19
# [7] = Group A, 2 mg/kg BW once (D0) via drinking water, laying hens, infestation on D22
# [8] = Group B, 1 mg/kg BW once (D0) via drinking water, laying hens, infestation on D1
# [9] = Group B, 1 mg/kg BW once (D0) via drinking water, laying hens, infestation on D5
# [10] = Group B, 1 mg/kg BW once (D0) via drinking water, laying hens, infestation on D8
# [11] = Group B, 1 mg/kg BW once (D0) via drinking water, laying hens, infestation on D12
# [12] = Group B, 1 mg/kg BW once (D0) via drinking water, laying hens, infestation on D15
# [13] = Group B, 1 mg/kg BW once (D0) via drinking water, laying hens, infestation on D19
# [14] = Group B, 1 mg/kg BW once (D0) via drinking water, laying hens, infestation on D22
# [15] = Group C, 0.5 mg/kg BW once (D0) via drinking water, laying hens, infestation on D1
# [16] = Group C, 0.5 mg/kg BW once (D0) via drinking water, laying hens, infestation on D5
# [17] = Group C, 0.5 mg/kg BW once (D0) via drinking water, laying hens, infestation on D8
# [18] = Group C, 0.5 mg/kg BW once (D0) via drinking water, laying hens, infestation on D12
# [19] = Group C, 0.5 mg/kg BW once (D0) via drinking water, laying hens, infestation on D15
# [20] = Group C, 0.5 mg/kg BW once (D0) via drinking water, laying hens, infestation on D19
# [21] = Group C, 0.5 mg/kg BW once (D0) via drinking water, laying hens, infestation on D22
# [22] = Group D, 1 (2 × 0.5) mg/kg BW (D0 and D7) via drinking water, laying hens, infestation on D1
# [23] = Group D, 1 (2 × 0.5) mg/kg BW (D0 and D7) via drinking water, laying hens, infestation on D5
# [24] = Group D, 1 (2 × 0.5) mg/kg BW (D0 and D7) via drinking water, laying hens, infestation on D8
# [25] = Group D, 1 (2 × 0.5) mg/kg BW (D0 and D7) via drinking water, laying hens, infestation on D12
# [26] = Group D, 1 (2 × 0.5) mg/kg BW (D0 and D7) via drinking water, laying hens, infestation on D15
# [27] = Group D, 1 (2 × 0.5) mg/kg BW (D0 and D7) via drinking water, laying hens, infestation on D19
# [28] = Group D, 1 (2 × 0.5) mg/kg BW (D0 and D7) via drinking water, laying hens, infestation on D22
compound,measurement,setting,value
"Cc1cc(C2=NOC(c3cc(Cl)cc(Cl)c3)(C(F)(F)F)C2)ccc1C(=O)NCC(=O)NCC(F)(F)F (stereo not shown) [fluralaner, 4-[5-(3,5-Dichlorophenyl)-5-trifluoromethyl-4,5-dihydroisoxazol-3-yl]-2-methyl-N-[(2,2,2-trifluoro-ethylcarbamoyl)-methyl]-benzamide]",% Inhibition of D. gallinae assessed 24 hours after infestation,[1],100%
same,% Mortality of D. gallinae assessed 24 hours after infestation,[1],100%
same,% Inhibition of D. gallinae assessed 24 hours after infestation,[2],100%
same,% Mortality of D. gallinae assessed 24 hours after infestation,[2],100%
same,% Inhibition of D. gallinae assessed 24 hours after infestation,[3],100%
same,% Mortality of D. gallinae assessed 24 hours after infestation,[3],100%
same,% Inhibition of D. gallinae assessed 24 hours after infestation,[4],100%
same,% Mortality of D. gallinae assessed 24 hours after infestation,[4],100%
same,% Inhibition of D. gallinae assessed 24 hours after infestation,[5],81%
same,% Mortality of D. gallinae assessed 24 hours after infestation,[5],77%
same,% Inhibition of D. gallinae assessed 24 hours after infestation,[6],14%
same,% Mortality of D. gallinae assessed 24 hours after infestation,[6],1%
same,% Inhibition of D. gallinae assessed 24 hours after infestation,[7],0%
same,% Mortality of D. gallinae assessed 24 hours after infestation,[7],0%
same,% Inhibition of D. gallinae assessed 24 hours after infestation,[8],100%
same,% Mortality of D. gallinae assessed 24 hours after infestation,[8],100%
same,% Inhibition of D. gallinae assessed 24 hours after infestation,[9],100%
same,% Mortality of D. gallinae assessed 24 hours after infestation,[9],100%
same,% Inhibition of D. gallinae assessed 24 hours after infestation,[10],100%
same,% Mortality of D. gallinae assessed 24 hours after infestation,[10],100%
same,% Inhibition of D. gallinae assessed 24 hours after infestation,[11],95%
same,% Mortality of D. gallinae assessed 24 hours after infestation,[11],94%
same,% Inhibition of D. gallinae assessed 24 hours after infestation,[12],81%
same,% Mortality of D. gallinae assessed 24 hours after infestation,[12],77%
same,% Inhibition of D. gallinae assessed 24 hours after infestation,[13],3%
same,% Mortality of D. gallinae assessed 24 hours after infestation,[13],2%
same,% Inhibition of D. gallinae assessed 24 hours after infestation,[14],0%
same,% Mortality of D. gallinae assessed 24 hours after infestation,[14],0%
same,% Inhibition of D. gallinae assessed 24 hours after infestation,[15],100%
same,% Mortality of D. gallinae assessed 24 hours after infestation,[15],100%
same,% Inhibition of D. gallinae assessed 24 hours after infestation,[16],100%
same,% Mortality of D. gallinae assessed 24 hours after infestation,[16],100%
same,% Inhibition of D. gallinae assessed 24 hours after infestation,[17],100%
same,% Mortality of D. gallinae assessed 24 hours after infestation,[17],97%
same,% Inhibition of D. gallinae assessed 24 hours after infestation,[18],75%
same,% Mortality of D. gallinae assessed 24 hours after infestation,[18],55%
same,% Inhibition of D. gallinae assessed 24 hours after infestation,[19],19%
same,% Mortality of D. gallinae assessed 24 hours after infestation,[19],15%
same,% Inhibition of D. gallinae assessed 24 hours after infestation,[20],0%
same,% Mortality of D. gallinae assessed 24 hours after infestation,[20],0%
same,% Inhibition of D. gallinae assessed 24 hours after infestation,[21],0%
same,% Mortality of D. gallinae assessed 24 hours after infestation,[21],0%
same,% Inhibition of D. gallinae assessed 24 hours after infestation,[22],100%
same,% Mortality of D. gallinae assessed 24 hours after infestation,[22],100%
same,% Inhibition of D. gallinae assessed 24 hours after infestation,[23],100%
same,% Mortality of D. gallinae assessed 24 hours after infestation,[23],100%
same,% Inhibition of D. gallinae assessed 24 hours after infestation,[24],100%
same,% Mortality of D. gallinae assessed 24 hours after infestation,[24],100%
same,% Inhibition of D. gallinae assessed 24 hours after infestation,[25],100%
same,% Mortality of D. gallinae assessed 24 hours after infestation,[25],100%
same,% Inhibition of D. gallinae assessed 24 hours after infestation,[26],99%
same,% Mortality of D. gallinae assessed 24 hours after infestation,[26],98%
same,% Inhibition of D. gallinae assessed 24 hours after infestation,[27],66%
same,% Mortality of D. gallinae assessed 24 hours after infestation,[27],59%
same,% Inhibition of D. gallinae assessed 24 hours after infestation,[28],27%
same,% Mortality of D. gallinae assessed 24 hours after infestation,[28],14%
same,onset of action,"all administered doses, via drinking water, laying hens",fast onset of action
same,inhibition of red poultry mites,"drinking water administration to poultry animals, for at least 15 days",99%
